Experiment: In vitro liposome fractionation assay
Assay type: binding
Conditions: 5 μg protein, 15 minute incubation, centrifugation, SDS-PAGE
Experimental: FIG. 51. Recombinant tTG can associate with lipid vesicles lacking any protein content. Synthetic liposomes were prepared by extrusion and then equal amounts of this preparation were combined with either 5 μg recombinant tTG (tTG WT) or 5 μg bovine serum albumin (BSA). After a 15 minute incubation, the liposomes were pelleted by centrifugation, and the resulting supernatant (Sup) and liposome (Pellet) fractions were resolved by SDS-PAGE. The gel was then stained with Quick Blue to detect the proteins. A lane containing recombinant tTG (Rec. tTG WT) was included as a standard.
To obtain the results depicted in FIG. 51, the following procedures were used. In vitro liposome fractionation assays—Synthetic liposomes were prepared from a lipid mixture containing 35% phosphatidylethanolamine, 25% phosphatidylserine, 5% phosphatidylinositol, and 35% cholesterol re-suspended in TBSM buffer (20 mM Tris, pH 7.5, 150 mM NaCl, and 2 mM MgCl2). The lipids were extruded through an 8 micron filter, pelleted by centrifugation at 13,000 rpm for 15 minutes, and re-suspended in TBSM buffer. Equal amounts of the lipid preparation were then incubated with either recombinant wild-type tTG or BSA for 15 minutes, followed by centrifugation at 13,000 rpm for 10 minutes at room temperature. […]

For bovine serum albumin [BSA], the “protein pelleted with synthetic liposomes” value was “only weakly pelleted”.
